Experimental data taken from patent publication US20210038732A1, “ANTICANCER MICRORNA AND LIPID FORMULATIONS THEREOF” (INTERNA TECHNOLOGIES B.V., priority 2018, published 2021).

How the values were obtained:
4T1 mouse tumor cells = assay: 4T1 re-challenge of previously treated mice, with or without T-cell depletion (Example 4.11); assay type: in vivo
Source text: In all cases, monoclonal antibodies were delivered to mice by intraperitoneal injection in 200p1 phosphate-buffered saline. For depletion and neutralization experiments, CD4 (clone GK1.5) and CD8 (clone 2.43) antibodies were used simultaneously. Depletion or neutralization was commenced a week before tumor cell inoculation. For CD4+ and CD8+ T-cell depletion, […] of the indicated antibody was delivered on a QOD×3 schedule in the first week and then a Q3D schedule for 3 more weeks. Depletion of the desired T-cell population(s) was confirmed on whole blood by flow cytometry (data not shown). 100 μL whole blood was drawn per animal on day 0 and day 14 post tumor cell inoculation (day 0=24h post QOD×3, Day 14: 24h post QOD×3+Q3D for 2 weeks). Then mixed with the antibodies. After vortexing gently, the mix was incubated for 30 minutes in the dark at room temperature (RT). 2 ml of 1× FACS lysing buffer was added to the solution and incubated for 10 min at RT. Then the solution mix was centrifuged for 5 min and the supernatant was removed. Finally, the cells were resuspended in 150p1 of staining buffer and analyzed on a cytometer. All flow cytometry antibodies (anti-CD45-PerCP-cy55 (clone: 30-F11), anti-CD3-FITC (clone: 17A2) anti-CD4-APC (clone: RM4-4), anti-CD8-PE (clone: 53-6.7) were purchased from Biolegend except anti-CD3 from BD Biosciences. (QOD×3: every other day for 3 days, Q3D: every 3 days (Monday-Thursday)).
To investigate the T-cell mediated long-term immunity in miRNA-193a treated mice against 4T1 cancer cells, a new study with similar conditions to example 4.4 was performed. 5 days post-tumor inoculation, mice were randomized into 2 groups and received a similar treatment and dosing regimen as in example 4.4 (see Table 9, groups 1-2 only). After surgical removal of primary tumors when the group mean tumor volume reached 800 mm3, treatments were resumed and continued until day 58. […]

4T1 = assay: Caspase 3/7 apoptosis assay; assay type: cell-based, mouse; settings: 10 nM, normalized to mock
Procedure: Depending on cancer cell type 3000-6000 cells were seeded in a 96 well plate. After cells attached, they were transfected with different concentrations of miRNA-193a and apoptosis induction was measured at different time points. This assay was performed using Promega kit. 100 uL of caspase reagent was added to 100 uL of media in each well in 96-well plate and incubated for 2 hours in the dark at room temperature. The luminescent signal was read on a luminescent plate reader.
Different biological effects of miRNA-193a-3p have been tested in various cancer cell lines (see Table 13). For this, various cells were treated with miRNA-193a at different concentrations (1, 3, 10 nM). For all experiments controls (untreated, mock and scrambled) were measured. All assays were performed at 24h, 48h and 72h time points. Data shown in Table 13 are the results for miRNA-193a at 10 nM concentration at indicated time points. All the results have been quantified and normalized to the mock control.
(§1) miRNA-193a treatment in various cancer cell lines decreased cell viability over time as measured by either an MTS assay or by cell count. It enhanced apoptosis induction over time as measured by a caspase 3/7 apoptosis assay. […] It is of note that due to intrinsic characteristics and gene mutation status of each cell line, performing one method to detect apoptosis is not always ideal for all cell lines.

Huh7, H1299, and HCT116 = assay: Cleaved-parp protein on western blot; assay type: cell-based; settings: data not shown
Source text: as §1

[1] = system: MPP2, STMN1, YWHAZ, and CCNA2; assay: Expression of G2/M related target genes by RT-PCR; assay type: cell-based, human; settings: 10 nM; Hep3B, SNU449 and H1975; 24h, 48h and 72h; vs mock
Procedure: To prepare cDNA, first 100 ng total RNA was mixed with Random Hexamers (Qiagen; final concentration 2 μM) in a final volume of 12.5 μl in NFW, denatured for 5 min at 70° C. and immediately cooled on ice. Next, 7.5 μl of a cDNA synthesis mix was added, consisting of 4 μl 5×RT Buffer (Promega), 0.4 μl 25 mM dNTPs (Promega), 1 μl 200 U/μL MMLV RT-enzyme (Promega), 0.5 μL 40 U/μL RNAse Inhibitor (Promega) and 1.6 μL NFW. The following cDNA synthesis protocol was used:
Similar phenotype has been observed in Panc1 (pancreatic cancer cell) as well as H1975 (lung cancer cell) (data not shown). […] MPP2 and STMN1 associate with cytoskeleton and therefore regulate cell division and proliferation at the G2/M phase, while YWHAZ and CCNA2 play roles in regulation of G2/M phase checkpoint by binding and sequestering the cyclin-dependent kinases.

Substance: miRNA-193a: duplex of the miRNA-193a-3p of SEQ ID NO: 218 (mimic, sense) with antisense strand SEQ ID NO: 219; naked in vitro, formulated in vivo (sense UGGGACUUUGUAGGCCAGUUTT; antisense AACUGGCCUACAAAGUCCCAGU; chemistry not given here; listed as Homo sapiens)
- 4T1 tumor growth after second re-challenge (4T1 mouse tumor cells; previously treated mice depleted for T cells (anti-CD4 + anti-CD8)): resulted in 4T1 tumor growth
- 4T1 tumor growth after second re-challenge (4T1 mouse tumor cells; previously treated mice not depleted for T cells): did not show a palpable 4T1 tumor
- Tumor re-growth after 4T1 re-challenge (4T1 mouse tumor cells; re-challenge day 76, followed up to 3 weeks, vs naïve mice): did not develop any palpable tumor
- Apoptosis (48/72 h) (4T1): ↑ (Induction < 2x)
- Cleaved-parp protein on western blot (Huh7, H1299, and HCT116): enhanced cleaved-parp protein
- Expression level of G2/M related target genes [1]: down-regulated
